# Measurements as given in PubChem BioAssay AID651677 (The Scripps Research Institute Molecular Screening Center, 2012).
# Where “and” joins values, the source holds several entries; their conditions need not be identical. Equal values may be shown once. Calls of active or inactive are those of the source. The rule behind the calls is not given here.
# Target: Perilipin-5 (Homo sapiens) + 1-acylglycerol-3-phosphate O-acyltransferase ABHD5 (Homo sapiens) (UniProt Q00G26+Q8WTS1)
# Assay: ABHD5-PLIN5 interaction inhibitors, dose response, biochemical, luminescence (AID 651677)
# Sequence of Perilipin-5 (Homo sapiens) + 1-acylglycerol-3-phosphate O-acyltransferase ABHD5 (Homo sapiens) (Q00G26 whole entry, looked up): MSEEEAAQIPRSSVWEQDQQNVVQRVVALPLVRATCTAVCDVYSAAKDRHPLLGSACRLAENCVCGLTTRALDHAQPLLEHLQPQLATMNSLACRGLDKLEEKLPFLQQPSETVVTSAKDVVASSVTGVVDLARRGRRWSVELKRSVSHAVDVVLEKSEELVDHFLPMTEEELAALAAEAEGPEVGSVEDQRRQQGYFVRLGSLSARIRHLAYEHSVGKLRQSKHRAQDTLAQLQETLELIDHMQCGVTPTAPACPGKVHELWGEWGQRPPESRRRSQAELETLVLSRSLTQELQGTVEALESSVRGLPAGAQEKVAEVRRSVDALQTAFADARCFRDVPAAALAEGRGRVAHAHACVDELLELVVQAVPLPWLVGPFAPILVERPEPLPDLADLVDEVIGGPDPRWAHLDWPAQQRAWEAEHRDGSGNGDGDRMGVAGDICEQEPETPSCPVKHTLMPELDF
# Sequence of Perilipin-5 (Homo sapiens) + 1-acylglycerol-3-phosphate O-acyltransferase ABHD5 (Homo sapiens) (Q8WTS1 whole entry, looked up): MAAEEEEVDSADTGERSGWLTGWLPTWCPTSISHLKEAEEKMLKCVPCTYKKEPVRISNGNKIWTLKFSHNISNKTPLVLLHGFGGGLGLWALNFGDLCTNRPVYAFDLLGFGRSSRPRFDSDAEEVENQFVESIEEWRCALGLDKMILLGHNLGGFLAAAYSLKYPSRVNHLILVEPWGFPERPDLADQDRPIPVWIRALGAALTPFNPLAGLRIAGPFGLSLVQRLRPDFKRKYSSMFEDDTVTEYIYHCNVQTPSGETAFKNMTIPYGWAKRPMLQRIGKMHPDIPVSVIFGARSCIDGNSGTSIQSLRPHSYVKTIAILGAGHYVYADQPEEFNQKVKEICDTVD
row,SMILES,IC50
1,COC(=O)c1ccc(Cn2cc(/C=C\[N+](=O)[O-])c3ccccc32)o1,6260 nM
2,CCN(CC)CCOCCOC(=O)C1(c2ccccc2)CCCC1,2030 nM
3,CCC(=O)Nc1cccc(C(=O)/C=C/c2ccccc2)c1,2710 nM
4,CCOC(=O)C1CCCN(C(=O)c2cc(Nc3ccc(OC)cc3)nc3ccccc23)C1 (centres undefined),inactive
5,O=C1/C(=C/c2cccnc2)CC/C1=C\c1cccnc1,3310 nM
6,Cc1ccc(CS(=O)(=O)c2ncc(Cl)c(C(=O)Nc3nnc(C(C)C)s3)n2)cc1,1380 nM
7,CC1=CC(C)(C)Nc2ccc(OC(=O)CN3C(=O)C4CCCCC4C3=O)cc21 (centres undefined),2500 nM
8,O=C(NCc1ccccc1)C(c1ccc(C(F)(F)F)cc1)n1c(=O)c(-c2ccco2)nc2ccccc21 (centres undefined),1310 nM
9,CN(C)CCN(Cc1ccco1)c1ccccn1,7750 nM
10,O=C(CF)N(O)c1ccc(C=Cc2ccccc2)cc1,> 39900 nM (inactive)
11,CCCCCNC(=O)C(c1ccc(C#N)cc1)n1c(=O)c(-c2ccco2)nc2ccccc21 (centres undefined),3150 nM
12,CCOC1=CC2=C(C(=O)C(Cl)=CC2=O)[C@@H]2CN(S(=O)(=O)c3ccc(C)cc3)[C@@H](c3ccccc3)[C@H]12,941 nM
13,Cc1nc(-c2ccccc2)sc1C(=O)/C=C/c1ccccc1,2790 nM
14,CC(=O)OCC1=C(C(=O)O)N2C(=O)C(NC(=O)CCn3nc(C(F)(F)F)c(Br)c3C3CC3)C2SC1 (centres undefined),5240 nM
15,Cc1ccc(C(=O)/C=C/c2cc(Br)cc(Br)c2O)o1,5540 nM
16,Cc1ccc(O)c(C(=O)/C=C/c2ccc3c(c2)OCCCO3)c1,4130 nM
17,C=C[C@]1(C)C[C@@H](OC(=O)CSCCN(CC)CC)[C@]2(C)C(C)CC[C@]3(CCC(=O)[C@H]32)[C@@H](C)[C@@H]1O (some centres undefined),8040 nM
18,CCN(CC)CCNC(=O)c1ccc(NC(=O)c2cn(-c3ccccc3)nc2-c2cccs2)cc1,inactive
19,O=C1NC(=S)NC(=O)C12C(c1ccccc1)NC(=S)NC2c1ccccc1 (centres undefined),4390 nM
20,CC1(C)C2CCC(CN=C(N)CSS(=O)(=O)O)C1C2 (centres undefined),4270 nM
21,CC(C)(C)NC(=O)C(c1cc2ccccc2o1)n1c(=O)c(-c2ccco2)nc2ccccc21 (centres undefined),1550 nM
22,CN(C)CCCN(C(=O)CCc1ccccc1)c1nc2ccc(Br)cc2s1,7910 nM
23,CCN(CCCc1ccccc1)CCCc1ccccc1,2660 nM
24,N#Cc1ccc(C(C(=O)NCc2ccccc2)n2c(=O)c(-c3ccco3)nc3ccccc32)cc1 (centres undefined),1560 nM
25,O=C1NC(=O)N(Cc2ccccc2)C(=O)/C1=C\C=C\c1ccco1,1320 nM

row,SMILES,IC50
1,CC(C)(C)NC(=O)C(c1ccc(C#N)cc1)n1c(=O)c(-c2ccco2)nc2ccccc21 (centres undefined),1850 nM
2,O=C(NCc1ccccc1)C(c1cccc2ccccc12)n1c(=O)c(-c2ccco2)nc2ccccc21 (centres undefined),2220 nM
3,N#Cc1ccc(C(C(=O)NC2CCCCC2)n2c(=O)c(-c3ccco3)nc3ccccc32)cc1 (centres undefined),1880 nM
4,COc1cc(/C=C/C(=O)c2ccc(Cl)s2)cc(OC)c1O,4480 nM
5,COc1ccc(NC(=O)C(c2ccc(OC)cc2)n2c(=O)c(-c3ccco3)nc3ccccc32)cc1 (centres undefined),6130 nM
6,NC(=NCCCCCCN=C(N)/N=C(\N)Nc1ccc(Cl)cc1)/N=C(\N)Nc1ccc(Cl)cc1,3820 nM and 1660 nM
7,O=C(NCc1ccccc1)C(c1ccccc1)n1c(=O)c(-c2ccco2)nc2ccccc21 (centres undefined),2800 nM
8,CCC1(C)N=C(c2ccc3c(c2)OCO3)CC(c2ccccc2O)N1 (centres undefined),1570 nM
9,O=c1[nH]c(C2CCN(S(=O)(=O)c3ccc(F)cc3)CC2)nc2c1nnn2Cc1ccc2c(c1)OCCO2,inactive
10,O=C1CC(c2ccc(Cl)cc2)Oc2ccc(Cl)cc21 (centres undefined),2840 nM
11,C#CCN(C[C@@H]1[C@@H](OC(=O)Nc2cccs2)[C@@H](OC(=O)Nc2cccs2)Cn2c(=O)ccc(=O)n21)S(=O)(=O)c1ccc(C)cc1,1780 nM
12,O=CC1=C(c2ccccc2)Oc2ccccc2O1,3520 nM
13,O=C(Cn1c(=O)n(Cc2ccco2)c(=O)c2c3c(sc21)CCCC3)Nc1ccccc1,inactive
14,O=C(NC1CCCCC1)C(c1ccccc1)n1c(=O)c(-c2ccco2)nc2ccccc21 (centres undefined),670 nM
15,CC(CCc1ccco1)NC(=O)CCc1nnc2ccc(NCc3ccccc3Cl)nn12 (centres undefined),8970 nM
16,COc1ccc(C)c2sc(N(CCN(C)C)C(=O)/C=C/c3cccs3)nc12,9910 nM
17,CCCCOC(=O)Nc1cc(C(=O)OC)ccc1C(=O)OC,6700 nM
18,CCCCCNC(=O)C(c1cc2ccccc2o1)n1c(=O)c(-c2ccco2)nc2ccccc21 (centres undefined),1160 nM
19,CC(O)CC(=O)OC[C@]12CC[C@H]3[C@@](C)(CC[C@H]4C(C)(C)CCC[C@]34C)[C@@H]1CC(C1=CC(=O)OC1O)O2 (some centres undefined),857 nM
20,O=C(/C(=C/c1ccccc1)n1cncn1)c1ccc(Cl)cc1Cl,2490 nM
21,CN1CCC[C@@H]1CCO[C@](C)(c1ccccc1)c1ccc(Cl)cc1,inactive
22,CN(C)c1ccc(Cc2cc3c(O)ccc(O)c3cc(Cc3ccc(N(C)C)cc3)c2=O)cc1,1990 nM
23,CC(C)(C)NC(=O)C(C1CC1)n1c(=O)c(-c2ccco2)nc2ccccc21 (centres undefined),2740 nM
24,O=C(NC1CCCCC1)C(c1ccnc2ccccc12)n1c(=O)c(-c2ccco2)nc2ccccc21 (centres undefined),1660 nM
